Data: article PMC10444810, “Induction of open-form bile canaliculus formation by hepatocytes for evaluation of biliary drug excretion” (Communications Biology, 2023)
Where “and” joins values, the source holds several entries; their conditions need not be identical. Equal entries are not always repeated.

How the values were obtained:
CYP2B6 = target: T1, CYP2B6 (Homo sapiens, UniProt P20813); assay: Metabolic assay, cocktail substrate method (bupropion to hydroxybupropion); format: in vitro ADME; details: for Enzyme activity, Mean: mean of Well-1 to Well-4
T1 construct: host or cells: PXB-cells (icHep: JFC, HUM181001B; sandwich culture: JFC)
T1 sequence (P20813 1-491): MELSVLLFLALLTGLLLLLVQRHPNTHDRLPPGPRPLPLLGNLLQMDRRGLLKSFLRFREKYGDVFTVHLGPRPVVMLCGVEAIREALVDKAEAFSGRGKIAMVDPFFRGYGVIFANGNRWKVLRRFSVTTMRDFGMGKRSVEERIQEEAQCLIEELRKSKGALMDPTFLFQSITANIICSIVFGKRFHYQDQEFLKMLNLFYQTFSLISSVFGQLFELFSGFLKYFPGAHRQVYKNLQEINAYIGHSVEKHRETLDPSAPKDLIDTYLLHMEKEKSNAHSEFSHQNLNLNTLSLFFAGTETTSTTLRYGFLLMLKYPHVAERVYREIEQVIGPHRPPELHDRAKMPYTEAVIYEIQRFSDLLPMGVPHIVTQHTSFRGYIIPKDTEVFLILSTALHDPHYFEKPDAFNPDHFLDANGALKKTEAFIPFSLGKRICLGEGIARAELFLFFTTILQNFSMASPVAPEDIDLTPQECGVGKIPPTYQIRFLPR
Experimental: The metabolic activity of icHep and sandwich-cultured PXB-cells was measured using the cocktail substrate method of drug-metabolizing enzymes. The components of the cocktail are summarized in Supplementary Table 1. Assays were initiated by treating cells with TB containing cocktail substrates. Time point of each substrate was set when a linear increase in its metabolite production was observed. Concentrations of metabolites produced in the medium were measured by liquid chromatography-mass spectrometry (LC-MS/MS).

[1] = test system: primary human hepatocytes / PXB-cells; assay: Counting hepatocyte bile canaliculi opening to the culture equipment (hemi-lumen formation rate); format: cell-based
Experimental: Transwell^TM permeable support used was coated with 50 μg/ml rat tail collagen I (Corning) in 0.02 N acetic acid at room temperature for 1 h. Transwell^TM was washed twice with PBS, then the in vitro-synthesised claudin-1, -2, -3, and -9 proteins were applied to Transwell^TM at a density of 750 ng/cm^2 each and incubated at room temperature for 1 h. Transwell^TM was washed twice with PBS before seeding cells. Cryopreserved human hepatocytes (Donor ID. HU1663) were purchased from Thermo Fisher Scientific and thawed using CHRM. The hepatocytes were then diluted with WEM containing CM3000. PXB-cells (Donor ID. JFC, and HUM181001B) were obtained from PhoenixBio (Hiroshima, Japan) as described previously. […] PXB-cells were resuspended in 2% DMSO-supplemented hepatocyte growth medium (d-HCGM)[27]. Cryopreserved human hepatocytes and PXB-cells were seeded at a density of 2.1 × 10^5 cells/cm^2 in the protein-coated culture equipment. After 4 h of incubation, the culture medium was replaced with fresh culture medium to remove the unattached cells. After 24 h of incubation, the cells were cultured in d-HCGM supplemented with 250 μg/ml Matrigel. The spent medium was replaced with fresh medium every 3 days. Donor information for the human hepatocytes used is listed in Supplementary Table 2.
To count the open- and closed-type bile canaliculi, MRP2 immunostaining was performed using the Z-stack function of a confocal microscope (LSM710; Carl Zeiss, Oberkochen, Germany). Immunostaining was performed as previously described. The ratio of open-type bile canaliculi to the total number of bile canaliculi was calculated according to Eq. (1), and the value obtained was evaluated as the induction rate of open-type bile canaliculi. Here, Aopen bile canaliculi and Abile canaliculi indicate the number of open-type bile canaliculi and total number of bile canaliculi, respectively.1 Formationrate%=Aopenbilecanaliculi/Abilecanaliculi×100

In the case of `C[C@H]1NC(C)(C)CO[C@]1(O)c1cccc(Cl)c1` [Hydroxybupropion], the Enzyme activity (CYP2B6; PXB-cells (JFC), incubation time 15 min, single wells) is reported as 28.7722 pmol/106 cells and 21.7302 pmol/106 cells and 27.8435 pmol/106 cells and 35.831 pmol/106 cells, the Enzyme activity (CYP2B6; PXB-cells (JFC), incubation time 45 min, single wells) is reported as 59.3541 pmol/106 cells and 57.6847 pmol/106 cells and 69.4473 pmol/106 cells and 46.5889 pmol/106 cells and the Enzyme activity (CYP2B6; PXB-cells (JFC), incubation time 60 min, single wells) is reported as 62.0864 pmol/106 cells and 73.8816 pmol/106 cells and 59.3241 pmol/106 cells and 58.6637 pmol/106 cells. For the same molecule, the Enzyme activity (CYP2B6; PXB-cells (JFC), incubation time 90 min, single wells) was 76.5226 pmol/106 cells and 51.4054 pmol/106 cells and 51.8001 pmol/106 cells and 50.3819 pmol/106 cells, the “Enzyme activity, Mean” value (CYP2B6; PXB-cells (JFC)) was 0.991 pmol/min/106 cells and the Enzyme activity (CYP2B6; icHep (HUM18100B), incubation time 15 min, single wells) was 25.5794 pmol/106 cells and 30.4047 pmol/106 cells and 24.7422 pmol/106 cells and 24.915 pmol/106 cells. For the same molecule, the Enzyme activity (CYP2B6; icHep (HUM18100B), incubation time 30 min, single wells) was 35.9071 pmol/106 cells and 54.335 pmol/106 cells and 43.958 pmol/106 cells and 62.1937 pmol/106 cells, the Enzyme activity (CYP2B6; icHep (HUM18100B), incubation time 45 min, single wells) was 67.877 pmol/106 cells and 59.438 pmol/106 cells and 65.4881 pmol/106 cells and 59.5632 pmol/106 cells and the Enzyme activity (CYP2B6; icHep (HUM18100B), incubation time 60 min, single wells) was 76.2731 pmol/106 cells and 66.7099 pmol/106 cells and 66.2746 pmol/106 cells and 64.1847 pmol/106 cells. For the same molecule, the Enzyme activity (CYP2B6; icHep (HUM18100B), incubation time 90 min, single wells) was 84.2201 pmol/106 cells and 81.8175 pmol/106 cells and 75.5651 pmol/106 cells and 70.6836 pmol/106 cells, the “Enzyme activity, Mean” value (CYP2B6; icHep (HUM18100B)) was 1.22 pmol/min/106 cells and the Enzyme activity (CYP2B6; icHep (HUM18100B), rate per single well) was 1.41 pmol/min/106 cells and 0.968 pmol/min/106 cells and 1.36 pmol/min/106 cells and 1.15 pmol/min/106 cells. The Enzyme activity (CYP2B6; icHep (JFC), incubation time 15 min, single wells) was 26.9509 pmol/106 cells and 26.6361 pmol/106 cells and 28.1971 pmol/106 cells and 21.5678 pmol/106 cells, the Enzyme activity (CYP2B6; icHep (JFC), incubation time 30 min, single wells) was 50.8052 pmol/106 cells and 52.8459 pmol/106 cells and 41.4458 pmol/106 cells and 41.1487 pmol/106 cells and the Enzyme activity (CYP2B6; icHep (JFC), incubation time 45 min, single wells) was 61.1962 pmol/106 cells and 63.9863 pmol/106 cells and 63.4142 pmol/106 cells and 59.0445 pmol/106 cells. The Enzyme activity (CYP2B6; icHep (JFC), incubation time 60 min, single wells) was 56.6821 pmol/106 cells and 56.5302 pmol/106 cells and 54.8514 pmol/106 cells and 60.04 pmol/106 cells, the Enzyme activity (CYP2B6; icHep (JFC), incubation time 90 min, single wells) was 69.6732 pmol/106 cells and 73.6155 pmol/106 cells and 56.0547 pmol/106 cells and 49.9876 pmol/106 cells and the “Enzyme activity, Mean” value (CYP2B6; icHep (JFC)) was 1.20 pmol/min/106 cells. For the same molecule, the Enzyme activity (CYP2B6; icHep (JFC), rate per single well) was 1.14 pmol/min/106 cells and 1.25 pmol/min/106 cells and 1.17 pmol/min/106 cells.

B1: claudin-1: human claudin-1 protein from E. coli cell-free synthesis, coated on the permeable support (protein, UniProt O95832 1-211, looked up)
Claudin-1: MANAGLQLLGFILAFLGWIGAIVSTALPQWRIYSYAGDNIVTAQAMYEGLWMSCVSQSTGQIQCKVFDSLLNLSSTLQATRALMVVGILLGVIAIFVATVGMKCMKCLEDDEVQKMRMAVIGGAIFLLAGLAILVATAWYGNRIVQEFYDPMTPVNARYEFGQALFTGWAAASLCLLGGALLCCSCPRKTTSYPTPRPYPKPAPSSGKDYV
B1 was tested, and the hemi-lumen formation rate ([1]; PXB-cells (donor), supports individually coated with each claudin) was 44.5 ± 4.8%, the “Open bile canalicular formation rate (%) Mean” value ([1]; icHep (JFC), claudin coating, mean of 3) was 44.5% and the “Open bile canalicular formation rate (%)” value ([1]; icHep (JFC), claudin coating, single replicate) was 50.0% and 41.5% and 42.0%.
